Patent publication US12473278B2 (Industry—University Cooperation Foundation Hangyang …, priority 2019, dated 2025)
Like-named read-outs stand apart in the source and are kept apart here.

Key:
FLT1/VEGFR1 = FLT1/VEGFR1 (Homo sapiens (Human), UniProt P17948); assay: Kinase panel screening; conditions: read-out: % inhibition rate
Text: (§1) Measurement of Inhibitory Activity Against Various Protein Kinases

FLT3 [1] = molecular target: T1, FLT3 (Homo sapiens (Human), UniProt P36888); assay: Kinase panel screening; conditions: read-out: % inhibition rate
Text: as §1

c-Src = c-Src (Homo sapiens (Human), UniProt P12931); assay: Kinase panel screening; conditions: read-out: % inhibition rate
Text: as §1

ROS/ROS1 = ROS/ROS1 (Homo sapiens (Human), UniProt P08922); assay: Kinase panel screening; conditions: read-out: % inhibition rate
Text: as §1

c-Kit = c-Kit (Homo sapiens (Human), UniProt P10721); assay: Kinase panel screening; conditions: read-out: % inhibition rate
Text: as §1

GSK3b = GSK3b (Homo sapiens (Human), UniProt P49841); assay: Kinase panel screening; type: biochemical; conditions: read-out: % inhibition rate
AKT1 = AKT1 (Homo sapiens (Human), UniProt P31749); assay: Kinase panel screening; conditions: read-out: % inhibition rate
Text: as §1

BRAF = BRAF (Homo sapiens (Human), UniProt P15056); assay: Kinase panel screening; conditions: read-out: % inhibition rate
Text: as §1

P38a/MAPK14 = P38a/MAPK14 (Homo sapiens (Human), UniProt Q16539); assay: Kinase panel screening; conditions: read-out: % inhibition rate
Chain of P38a/MAPK14 (Q16539 whole entry): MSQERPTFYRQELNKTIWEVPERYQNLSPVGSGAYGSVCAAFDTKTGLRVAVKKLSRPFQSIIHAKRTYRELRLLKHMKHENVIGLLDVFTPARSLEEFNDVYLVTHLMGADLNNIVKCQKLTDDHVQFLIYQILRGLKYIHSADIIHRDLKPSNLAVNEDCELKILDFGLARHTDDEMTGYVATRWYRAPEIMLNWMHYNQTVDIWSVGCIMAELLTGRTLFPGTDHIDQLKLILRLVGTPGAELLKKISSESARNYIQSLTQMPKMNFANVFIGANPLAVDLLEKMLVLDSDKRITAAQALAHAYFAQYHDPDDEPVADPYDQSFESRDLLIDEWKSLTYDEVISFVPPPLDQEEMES
Text: as §1

LCK = LCK (Homo sapiens (Human), UniProt P06239); assay: Kinase panel screening; type: biochemical; conditions: read-out: % inhibition rate
PLK1 = PLK1 (Homo sapiens (Human), UniProt P53350); assay: Kinase panel screening; type: biochemical; conditions: read-out: % inhibition rate
EGFR = EGFR (Homo sapiens (Human), UniProt P00533); assay: Kinase panel screening; conditions: read-out: % inhibition rate
Text: as §1

MTOR/FRAP1 = MTOR/FRAP1 (Homo sapiens (Human), UniProt P42345); assay: Kinase panel screening; type: biochemical; conditions: read-out: % inhibition rate
JNK3 = JNK3 (Homo sapiens (Human), UniProt P53779); assay: Kinase panel screening; conditions: read-out: % inhibition rate
Text: as §1

ALK = ALK (Homo sapiens (Human), UniProt Q9UM73); assay: Kinase panel screening; conditions: read-out: % inhibition rate
Text: as §1

RAFI = RAFI (Homo sapiens (Human), UniProt P04049); assay: Kinase panel screening; conditions: read-out: % inhibition rate
Chain of RAFI (P04049 whole entry): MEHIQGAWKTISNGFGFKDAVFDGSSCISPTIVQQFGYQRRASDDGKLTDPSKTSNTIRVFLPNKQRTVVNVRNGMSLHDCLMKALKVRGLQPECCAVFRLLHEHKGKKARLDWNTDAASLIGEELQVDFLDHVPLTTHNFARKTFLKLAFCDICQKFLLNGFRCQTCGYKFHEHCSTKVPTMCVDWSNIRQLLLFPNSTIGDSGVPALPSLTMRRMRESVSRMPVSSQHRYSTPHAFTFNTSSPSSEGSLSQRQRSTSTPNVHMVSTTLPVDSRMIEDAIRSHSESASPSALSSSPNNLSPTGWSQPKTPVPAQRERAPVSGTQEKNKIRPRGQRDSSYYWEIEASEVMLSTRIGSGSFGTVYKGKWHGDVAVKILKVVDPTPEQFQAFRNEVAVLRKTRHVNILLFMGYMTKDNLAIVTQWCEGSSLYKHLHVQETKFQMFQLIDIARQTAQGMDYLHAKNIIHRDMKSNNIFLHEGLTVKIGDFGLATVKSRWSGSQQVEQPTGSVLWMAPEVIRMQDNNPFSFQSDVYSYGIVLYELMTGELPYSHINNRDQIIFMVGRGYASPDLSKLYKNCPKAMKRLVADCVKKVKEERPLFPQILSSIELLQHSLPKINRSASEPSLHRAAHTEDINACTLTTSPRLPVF
Text: as §1

FMS = FMS (Homo sapiens (Human), UniProt P07333); assay: Kinase panel screening; type: biochemical; conditions: read-out: % inhibition rate
Chain of FMS (P07333 20-972, species assumed): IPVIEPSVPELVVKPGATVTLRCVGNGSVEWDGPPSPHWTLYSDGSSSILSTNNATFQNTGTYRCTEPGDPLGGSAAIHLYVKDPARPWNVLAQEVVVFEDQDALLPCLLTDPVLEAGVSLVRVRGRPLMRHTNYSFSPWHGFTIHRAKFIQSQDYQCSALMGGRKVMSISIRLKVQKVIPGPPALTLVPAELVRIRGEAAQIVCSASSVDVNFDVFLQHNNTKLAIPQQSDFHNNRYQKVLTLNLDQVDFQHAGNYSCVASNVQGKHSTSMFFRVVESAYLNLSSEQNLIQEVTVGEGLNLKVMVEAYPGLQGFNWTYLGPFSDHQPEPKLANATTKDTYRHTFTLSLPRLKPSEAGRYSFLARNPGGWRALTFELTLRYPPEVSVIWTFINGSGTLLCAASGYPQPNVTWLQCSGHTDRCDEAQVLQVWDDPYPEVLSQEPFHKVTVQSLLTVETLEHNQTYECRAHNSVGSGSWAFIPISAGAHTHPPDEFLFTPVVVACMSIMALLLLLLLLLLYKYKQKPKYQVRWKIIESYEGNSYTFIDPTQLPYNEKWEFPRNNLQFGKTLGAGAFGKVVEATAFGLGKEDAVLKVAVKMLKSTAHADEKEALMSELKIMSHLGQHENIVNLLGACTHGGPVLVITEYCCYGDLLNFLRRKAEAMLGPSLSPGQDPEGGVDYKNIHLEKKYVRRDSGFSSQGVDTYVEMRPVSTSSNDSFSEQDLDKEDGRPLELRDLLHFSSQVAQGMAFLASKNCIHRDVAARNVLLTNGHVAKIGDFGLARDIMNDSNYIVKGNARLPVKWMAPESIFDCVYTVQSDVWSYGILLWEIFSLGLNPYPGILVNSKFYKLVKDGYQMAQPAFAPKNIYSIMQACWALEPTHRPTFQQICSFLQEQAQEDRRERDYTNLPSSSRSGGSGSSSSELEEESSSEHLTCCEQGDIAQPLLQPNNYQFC

MEK1 = MEK1 (Homo sapiens (Human), UniProt Q02750); assay: Kinase panel screening; conditions: read-out: % inhibition rate
Text: as §1

ABL1 = ABL1 (Homo sapiens (Human), UniProt P00519); assay: Kinase panel screening; type: biochemical; conditions: read-out: % inhibition rate
Chain of ABL1 (P00519 whole entry, species assumed): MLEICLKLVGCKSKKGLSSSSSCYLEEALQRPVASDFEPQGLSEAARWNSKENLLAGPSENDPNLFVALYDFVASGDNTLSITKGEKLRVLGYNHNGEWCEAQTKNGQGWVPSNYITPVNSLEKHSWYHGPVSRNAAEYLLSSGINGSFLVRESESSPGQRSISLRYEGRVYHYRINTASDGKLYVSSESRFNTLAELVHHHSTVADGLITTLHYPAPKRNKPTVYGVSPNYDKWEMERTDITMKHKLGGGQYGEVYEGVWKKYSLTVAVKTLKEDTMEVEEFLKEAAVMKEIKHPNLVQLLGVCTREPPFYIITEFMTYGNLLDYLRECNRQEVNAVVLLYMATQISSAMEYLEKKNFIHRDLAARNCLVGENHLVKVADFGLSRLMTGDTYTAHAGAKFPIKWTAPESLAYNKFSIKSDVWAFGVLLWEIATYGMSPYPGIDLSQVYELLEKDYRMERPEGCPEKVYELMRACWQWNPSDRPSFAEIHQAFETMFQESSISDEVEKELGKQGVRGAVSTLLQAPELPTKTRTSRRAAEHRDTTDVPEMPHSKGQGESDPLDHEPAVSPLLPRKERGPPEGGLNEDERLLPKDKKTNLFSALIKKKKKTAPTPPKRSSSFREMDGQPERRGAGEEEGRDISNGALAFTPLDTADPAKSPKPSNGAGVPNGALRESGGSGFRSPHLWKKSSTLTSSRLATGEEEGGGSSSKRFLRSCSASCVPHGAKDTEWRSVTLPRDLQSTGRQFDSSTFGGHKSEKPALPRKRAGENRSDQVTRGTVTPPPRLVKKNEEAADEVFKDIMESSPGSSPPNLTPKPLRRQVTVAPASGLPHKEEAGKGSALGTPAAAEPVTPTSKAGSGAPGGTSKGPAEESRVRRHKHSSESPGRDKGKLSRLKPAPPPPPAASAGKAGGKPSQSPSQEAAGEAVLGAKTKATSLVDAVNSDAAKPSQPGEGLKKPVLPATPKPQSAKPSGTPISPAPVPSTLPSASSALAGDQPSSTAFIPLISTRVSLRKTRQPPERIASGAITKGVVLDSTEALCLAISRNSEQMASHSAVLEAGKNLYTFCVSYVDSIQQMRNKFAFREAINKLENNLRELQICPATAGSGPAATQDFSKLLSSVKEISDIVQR

BTK = BTK (Homo sapiens (Human), UniProt Q06187); assay: Kinase panel screening; conditions: read-out: % inhibition rate
Text: as §1

KDR/VEGFR2 = KDR/VEGFR2 (Homo sapiens (Human), UniProt P35968); assay: Kinase panel screening; type: biochemical; conditions: read-out: % inhibition rate
LYN = LYN (Homo sapiens (Human), UniProt P07948); assay: Kinase panel screening; conditions: read-out: % inhibition rate
Text: as §1

FLT3 [2] = molecular target: T1, FLT3; assay: Measurement of FLT3 enzyme activity; type: biochemical
Text: Measurement of FLT3 Enzyme Activity
A change in FLT3 enzyme activity by treatment with the benzimidazole derivatives of the following Table 1 according to the present invention was confirmed by IC50.

PKA = PKA (Homo sapiens (Human), UniProt P17612); assay: Kinase panel screening; conditions: read-out: % inhibition rate
Text: as §1

SYK = SYK (Homo sapiens (Human), UniProt P43405); assay: Kinase panel screening; type: biochemical; conditions: single dose of 10 μM, read-out: % inhibition rate
RON/MSTIR = RON/MSTIR (Homo sapiens (Human), UniProt Q04912); assay: Kinase panel screening; conditions: read-out: % inhibition rate
Text: as §1

Aurora A = Aurora A (Homo sapiens (Human), UniProt O14965); assay: Kinase panel screening; conditions: read-out: % inhibition rate
Text: as §1

FGFR3 = FGFR3 (Homo sapiens (Human), UniProt P22607); assay: Kinase panel screening; conditions: read-out: % inhibition rate
Text: as §1

JAK3 = JAK3 (Homo sapiens (Human), UniProt P52333); assay: Kinase panel screening; conditions: read-out: % inhibition rate
Text: as §1

IGFIR = IGFIR (Homo sapiens (Human), UniProt P08069); assay: Kinase panel screening; conditions: read-out: % inhibition rate
Text: as §1

ERK1 = ERK1 (Homo sapiens (Human), UniProt P27361); assay: Kinase panel screening; conditions: read-out: % inhibition rate
Text: as §1

c-MET = c-MET (Homo sapiens (Human), UniProt P08581); assay: Kinase panel screening; conditions: read-out: % inhibition rate
Text: as §1

CDK2/cyclin E = CDK2/cyclin E (Homo sapiens (Human), UniProt P24941); assay: Kinase panel screening; type: biochemical; conditions: read-out: % inhibition rate
CDK1/cyclinB = CDK1/cyclinB (Homo sapiens (Human), UniProt P06493); assay: Kinase panel screening; conditions: read-out: % inhibition rate
Chain of CDK1/cyclinB (P06493 whole entry, species assumed): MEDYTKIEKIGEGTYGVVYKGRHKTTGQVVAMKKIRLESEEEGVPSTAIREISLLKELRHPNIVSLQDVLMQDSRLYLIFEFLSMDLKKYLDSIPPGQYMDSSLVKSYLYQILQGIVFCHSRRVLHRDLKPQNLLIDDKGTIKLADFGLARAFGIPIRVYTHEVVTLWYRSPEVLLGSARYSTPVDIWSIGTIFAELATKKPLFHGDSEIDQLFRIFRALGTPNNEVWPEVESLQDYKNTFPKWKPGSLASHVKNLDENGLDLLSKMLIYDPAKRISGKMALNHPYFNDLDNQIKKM
Chain of CDK1/cyclinB (P14635 whole entry partner, species assumed): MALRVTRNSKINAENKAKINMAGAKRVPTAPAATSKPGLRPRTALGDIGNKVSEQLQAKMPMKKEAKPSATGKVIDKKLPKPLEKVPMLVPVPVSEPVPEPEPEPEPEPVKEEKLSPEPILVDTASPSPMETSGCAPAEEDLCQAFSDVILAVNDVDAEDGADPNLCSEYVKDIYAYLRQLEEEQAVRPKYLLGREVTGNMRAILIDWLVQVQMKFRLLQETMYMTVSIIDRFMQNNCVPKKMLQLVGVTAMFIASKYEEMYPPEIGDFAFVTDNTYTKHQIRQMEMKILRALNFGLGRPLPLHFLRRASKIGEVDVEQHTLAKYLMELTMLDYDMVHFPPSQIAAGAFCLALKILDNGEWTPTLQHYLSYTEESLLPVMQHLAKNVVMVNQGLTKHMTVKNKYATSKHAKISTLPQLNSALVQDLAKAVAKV
Text: as §1

BRAF (V599E) = BRAF (V599E) (Homo sapiens (Human), UniProt P15056, V600E); assay: Kinase panel screening; conditions: read-out: % inhibition rate
Text: as §1

T1 sequence (P36888 27-993): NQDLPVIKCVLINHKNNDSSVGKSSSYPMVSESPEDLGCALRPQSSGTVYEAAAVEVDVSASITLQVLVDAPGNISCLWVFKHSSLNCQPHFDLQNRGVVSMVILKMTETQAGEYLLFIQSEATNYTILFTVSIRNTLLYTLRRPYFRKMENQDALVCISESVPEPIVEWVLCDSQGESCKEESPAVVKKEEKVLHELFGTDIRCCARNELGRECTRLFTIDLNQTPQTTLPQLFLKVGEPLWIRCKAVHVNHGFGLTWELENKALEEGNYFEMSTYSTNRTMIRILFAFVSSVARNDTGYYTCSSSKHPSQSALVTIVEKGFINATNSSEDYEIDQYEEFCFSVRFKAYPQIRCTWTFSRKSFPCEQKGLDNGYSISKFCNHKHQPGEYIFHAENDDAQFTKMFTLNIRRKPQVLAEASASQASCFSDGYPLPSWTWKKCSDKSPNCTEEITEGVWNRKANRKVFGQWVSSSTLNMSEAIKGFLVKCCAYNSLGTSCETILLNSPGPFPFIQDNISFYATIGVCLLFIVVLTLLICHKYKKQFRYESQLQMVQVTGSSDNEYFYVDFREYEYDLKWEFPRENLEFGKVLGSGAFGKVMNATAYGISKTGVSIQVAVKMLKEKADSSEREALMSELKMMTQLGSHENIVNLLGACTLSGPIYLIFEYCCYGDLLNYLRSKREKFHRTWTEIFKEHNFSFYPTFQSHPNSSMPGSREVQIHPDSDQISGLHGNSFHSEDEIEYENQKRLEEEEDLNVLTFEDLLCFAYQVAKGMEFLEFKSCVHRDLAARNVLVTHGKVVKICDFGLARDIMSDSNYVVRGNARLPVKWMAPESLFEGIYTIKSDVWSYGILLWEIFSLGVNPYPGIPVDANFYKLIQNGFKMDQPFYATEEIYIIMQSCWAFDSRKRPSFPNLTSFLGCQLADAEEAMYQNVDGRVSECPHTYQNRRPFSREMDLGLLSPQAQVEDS

Cc1oncc1C(=O)Nc1ccc2[nH]c(-c3cc(N4CCOCC4)cc(C(F)(F)F)c3)nc2c1 [Compound 5b, 5-methyl-N-(2-(3-morpholino-5-(trifluoromethyl)phenyl)-1H-benz[d]imidazol-5-yl)isoxazole-4-carboxamide]
inhibition at 10 µM (FLT1/VEGFR1): 0% | inhibition at 10 µM (FLT3 [1]): 73% | inhibition at 10 µM (c-Src): 0% | inhibition at 10 µM (ROS/ROS1): 7.4% | inhibition at 10 µM (c-Kit): 0% | inhibition at 10 µM (GSK3b): 2.8% | inhibition at 10 µM (AKT1): 10.9% | inhibition at 10 µM (BRAF): 0% | inhibition at 10 µM (P38a/MAPK14): 0% | inhibition at 10 µM (LCK): 0% | inhibition at 10 µM (PLK1): 2.86% | inhibition at 10 µM (EGFR): 0% | inhibition at 10 µM (MTOR/FRAP1): 0% | inhibition at 10 µM (JNK3): 0% | inhibition at 10 µM (ALK): 0% | inhibition at 10 µM (RAFI): 15.7% | inhibition at 10 µM (FMS): 0% | inhibition at 10 µM (MEK1): 0% | inhibition at 10 µM (ABL1): 0% | inhibition at 10 µM (BTK): 19.3% | inhibition at 10 µM (KDR/VEGFR2): 0% | inhibition at 10 µM (LYN): 0% | IC50 (FLT3 [2]; FLT3 enzyme activity, read-out: FLT3 (IC50)): 3 to 10 µM | IC50 (FLT3 [2]; FLT3 kinase activity, read-out: IC50 against FLT3): 7.94 µM | inhibition at 10 µM (PKA): 2.38% | inhibition at 10 µM (SYK): 2.18% | inhibition at 10 µM (RON/MSTIR): 0% | inhibition at 10 µM (Aurora A): 6.4% | inhibition at 10 µM (FGFR3): 0% | inhibition at 10 µM (JAK3): 0.94% | inhibition at 10 µM (IGFIR): 0% | inhibition at 10 µM (ERK1): 0% | inhibition at 10 µM (c-MET): 0% | inhibition at 10 µM (CDK2/cyclin E): 0% | inhibition at 10 µM (CDK1/cyclinB): 2.76% | inhibition at 10 µM (BRAF (V599E)): 25.2%
